Assay results reported in the NIST ThermoML archive (doi:10.1016/j.jct.2014.10.001).
Where “and” joins values, the source holds several entries; their conditions need not be identical. Equal values may be shown once.

Assay: xn = mol fraction of the nth substance listed
Conditions: Gas, Buoyancy - hydrostatic balance with magnetic suspension - one sinker

FCC(F)(F)F [1,1,1,2-tetrafluoroethane] + CCC
Conditions | mass density
258.14 K, 113.78 kPa, x1 = 0.5401 | 4.1262 kg/m3
258.14 K, 154.11 kPa, x1 = 0.5401 | 5.651 kg/m3
258.15 K, 190.72 kPa, x1 = 0.5401 | 7.0674 kg/m3
258.15 K, 242.95 kPa, x1 = 0.5401 | 9.1445 kg/m3
258.16 K, 154.01 kPa, x1 = 0.7989 | 6.8087 kg/m3
258.16 K, 168.96 kPa, x1 = 0.2391 | 4.7661 kg/m3
258.17 K, 103.24 kPa, x1 = 0.2391 | 2.8628 kg/m3
258.17 K, 106.9 kPa, x1 = 0.7989 | 4.6538 kg/m3
258.18 K, 197.88 kPa, x1 = 0.7989 | 8.8817 kg/m3
258.19 K, 252.34 kPa, x1 = 0.2391 | 7.2822 kg/m3
263.13 K, 101.57 kPa, x1 = 0.5401 | 3.5945 kg/m3
263.13 K, 101.58 kPa, x1 = 0.5401 | 3.5946 kg/m3
263.14 K, 134.16 kPa, x1 = 0.6201 | 5.0876 kg/m3
263.14 K, 166.53 kPa, x1 = 0.5401 | 5.9917 kg/m3
263.14 K, 183.78 kPa, x1 = 0.7989 | 8.0203 kg/m3
263.14 K, 220.07 kPa, x1 = 0.5401 | 8.0347 kg/m3
263.14 K, 225.37 kPa, x1 = 0.7989 | 9.9705 kg/m3
263.14 K, 281.67 kPa, x1 = 0.5401 | 10.4652 kg/m3
263.15 K, 99.9 kPa, x1 = 0.7989 | 4.2498 kg/m3
263.15 K, 102.04 kPa, x1 = 0.2391 | 2.7715 kg/m3
263.15 K, 145.63 kPa, x1 = 0.7989 | 6.2807 kg/m3
263.15 K, 194.24 kPa, x1 = 0.6201 | 7.4918 kg/m3
263.15 K, 259.7 kPa, x1 = 0.6201 | 10.2107 kg/m3
263.16 K, 203.74 kPa, x1 = 0.2391 | 5.6732 kg/m3
263.17 K, 305.05 kPa, x1 = 0.2391 | 8.7279 kg/m3
268.12 K, 231.64 kPa, x1 = 0.7989 | 10.0266 kg/m3
268.13 K, 104.95 kPa, x1 = 0.7989 | 4.3792 kg/m3
268.13 K, 150.69 kPa, x1 = 0.7989 | 6.3684 kg/m3
268.13 K, 213.45 kPa, x1 = 0.6201 | 8.092 kg/m3
268.14 K, 104.92 kPa, x1 = 0.5401 | 3.6381 kg/m3
268.14 K, 125.37 kPa, x1 = 0.6201 | 4.6466 kg/m3
268.14 K, 190.18 kPa, x1 = 0.7989 | 8.1303 kg/m3
268.14 K, 285.39 kPa, x1 = 0.7989 | 12.5661 kg/m3
268.14 K, 300.29 kPa, x1 = 0.6201 | 11.6624 kg/m3
268.15 K, 183.8 kPa, x1 = 0.5401 | 6.4973 kg/m3
268.15 K, 268.92 kPa, x1 = 0.5401 | 9.7174 kg/m3
268.16 K, 198.02 kPa, x1 = 0.2391 | 5.3921 kg/m3
268.16 K, 341.03 kPa, x1 = 0.5401 | 12.5709 kg/m3
268.17 K, 119.34 kPa, x1 = 0.2391 | 3.1919 kg/m3
268.17 K, 286.65 kPa, x1 = 0.2391 | 7.9728 kg/m3
268.17 K, 365.93 kPa, x1 = 0.2391 | 10.3898 kg/m3
273.1 K, 170.36 kPa, x1 = 0.5401 | 5.8806 kg/m3
273.1 K, 283.04 kPa, x1 = 0.6201 | 10.6873 kg/m3
273.1 K, 358.16 kPa, x1 = 0.6201 | 13.8005 kg/m3
273.1 K, 411.8 kPa, x1 = 0.5401 | 15.1107 kg/m3
273.11 K, 105.09 kPa, x1 = 0.5401 | 3.5743 kg/m3
273.11 K, 121.2 kPa, x1 = 0.6201 | 4.3969 kg/m3
273.11 K, 251.59 kPa, x1 = 0.5401 | 8.853 kg/m3
273.11 K, 262.93 kPa, x1 = 0.7989 | 11.2212 kg/m3
273.11 K, 323.14 kPa, x1 = 0.5401 | 11.5758 kg/m3
273.12 K, 100.04 kPa, x1 = 0.7989 | 4.0831 kg/m3
273.12 K, 122.4 kPa, x1 = 0.2391 | 3.2081 kg/m3
273.12 K, 206.06 kPa, x1 = 0.6201 | 7.6287 kg/m3
273.12 K, 451.8 kPa, x1 = 0.2391 | 12.8024 kg/m3
273.13 K, 144.28 kPa, x1 = 0.7989 | 5.9572 kg/m3
273.13 K, 204.71 kPa, x1 = 0.2391 | 5.4646 kg/m3
273.13 K, 216.26 kPa, x1 = 0.7989 | 9.1063 kg/m3
273.13 K, 288.63 kPa, x1 = 0.2391 | 7.853 kg/m3
273.13 K, 319.28 kPa, x1 = 0.7989 | 13.8595 kg/m3
273.13 K, 364.79 kPa, x1 = 0.2391 | 10.1086 kg/m3
278.12 K, 123.52 kPa, x1 = 0.6201 | 4.396 kg/m3
278.13 K, 236.83 kPa, x1 = 0.6201 | 8.6438 kg/m3
278.14 K, 337.13 kPa, x1 = 0.6201 | 12.6083 kg/m3
278.14 K, 433.01 kPa, x1 = 0.6201 | 16.603 kg/m3
278.15 K, 103.41 kPa, x1 = 0.7989 | 4.1428 kg/m3
278.15 K, 194.41 kPa, x1 = 0.5401 | 6.606 kg/m3
278.15 K, 286.8 kPa, x1 = 0.7989 | 12.0403 kg/m3
278.15 K, 289.3 kPa, x1 = 0.5401 | 10.0435 kg/m3
278.15 K, 381.08 kPa, x1 = 0.7989 | 16.4363 kg/m3 and 16.4338 kg/m3
278.15 K, 419.02 kPa, x1 = 0.5401 | 15.0163 kg/m3
278.15 K, 504.76 kPa, x1 = 0.5401 | 18.5053 kg/m3
278.16 K, 115.44 kPa, x1 = 0.5401 | 3.8575 kg/m3
278.16 K, 152.51 kPa, x1 = 0.7989 | 6.1813 kg/m3
278.16 K, 230.77 kPa, x1 = 0.7989 | 9.5443 kg/m3
278.19 K, 442.42 kPa, x1 = 0.2391 | 12.1807 kg/m3
278.2 K, 102.16 kPa, x1 = 0.2391 | 2.6113 kg/m3
278.2 K, 233.61 kPa, x1 = 0.2391 | 6.1346 kg/m3
278.2 K, 514.55 kPa, x1 = 0.2391 | 14.4261 kg/m3
278.21 K, 366.56 kPa, x1 = 0.2391 | 9.9124 kg/m3
283.13 K, 211.19 kPa, x1 = 0.7822 | 8.4187 kg/m3
283.13 K, 329.43 kPa, x1 = 0.7822 | 13.5211 kg/m3
283.13 K, 459.52 kPa, x1 = 0.7822 | 19.5449 kg/m3
283.14 K, 311.18 kPa, x1 = 0.5401 | 10.6211 kg/m3
283.14 K, 501.49 kPa, x1 = 0.5401 | 17.8976 kg/m3
283.15 K, 101.13 kPa, x1 = 0.5401 | 3.3055 kg/m3
283.15 K, 102.6 kPa, x1 = 0.7822 | 3.9912 kg/m3
283.15 K, 120.94 kPa, x1 = 0.6201 | 4.2161 kg/m3
283.15 K, 198.01 kPa, x1 = 0.6201 | 7.0141 kg/m3
283.15 K, 210.93 kPa, x1 = 0.5401 | 7.0468 kg/m3
283.15 K, 416.97 kPa, x1 = 0.5401 | 14.5789 kg/m3
283.15 K, 602.24 kPa, x1 = 0.5401 | 22.0672 kg/m3
283.16 K, 415.7 kPa, x1 = 0.6201 | 15.476 kg/m3
283.16 K, 514.53 kPa, x1 = 0.6201 | 19.6465 kg/m3
283.17 K, 114.18 kPa, x1 = 0.2391 | 2.8713 kg/m3
283.17 K, 457.55 kPa, x1 = 0.2391 | 12.3388 kg/m3
283.17 K, 636.31 kPa, x1 = 0.2391 | 17.9209 kg/m3
283.18 K, 185.02 kPa, x1 = 0.2391 | 4.7134 kg/m3
283.18 K, 298.86 kPa, x1 = 0.2391 | 7.7872 kg/m3
283.18 K, 383.01 kPa, x1 = 0.2391 | 10.158 kg/m3
288.1 K, 100.89 kPa, x1 = 0.7822 | 3.85 kg/m3
288.12 K, 214.43 kPa, x1 = 0.7822 | 8.3795 kg/m3
288.12 K, 325.43 kPa, x1 = 0.7822 | 13.0428 kg/m3
288.12 K, 552.55 kPa, x1 = 0.7822 | 23.4956 kg/m3
288.12 K, 552.56 kPa, x1 = 0.7822 | 23.4963 kg/m3
288.12 K, 709.34 kPa, x1 = 0.5401 | 26.0161 kg/m3
288.13 K, 102.08 kPa, x1 = 0.5401 | 3.2763 kg/m3
288.13 K, 317.7 kPa, x1 = 0.5401 | 10.6307 kg/m3
288.13 K, 424.11 kPa, x1 = 0.5401 | 14.5146 kg/m3
288.13 K, 446.77 kPa, x1 = 0.6201 | 16.3715 kg/m3
288.13 K, 448.02 kPa, x1 = 0.7822 | 18.5148 kg/m3
288.13 K, 514.46 kPa, x1 = 0.5401 | 17.9692 kg/m3
288.13 K, 613.19 kPa, x1 = 0.5401 | 21.9339 kg/m3
288.14 K, 209.2 kPa, x1 = 0.5401 | 6.8504 kg/m3
288.14 K, 232.81 kPa, x1 = 0.6201 | 8.1461 kg/m3
288.14 K, 332.05 kPa, x1 = 0.6201 | 11.8593 kg/m3
288.15 K, 122.39 kPa, x1 = 0.6201 | 4.191 kg/m3
288.15 K, 553.06 kPa, x1 = 0.6201 | 20.7897 kg/m3
288.43 K, 753.42 kPa, x1 = 0.2391 | 21.238 kg/m3
288.45 K, 459.95 kPa, x1 = 0.2391 | 12.1079 kg/m3
288.45 K, 680.21 kPa, x1 = 0.2391 | 18.823 kg/m3
288.46 K, 121.21 kPa, x1 = 0.2391 | 2.9907 kg/m3
288.46 K, 302.44 kPa, x1 = 0.2391 | 7.7138 kg/m3
288.46 K, 384.07 kPa, x1 = 0.2391 | 9.9536 kg/m3
288.46 K, 571.46 kPa, x1 = 0.2391 | 15.4131 kg/m3
288.47 K, 209.6 kPa, x1 = 0.2391 | 5.253 kg/m3
293.14 K, 105.81 kPa, x1 = 0.7822 | 3.9639 kg/m3
293.15 K, 425.23 kPa, x1 = 0.7822 | 17.0517 kg/m3
293.15 K, 454.02 kPa, x1 = 0.5401 | 15.2811 kg/m3
293.15 K, 540.93 kPa, x1 = 0.7822 | 22.3179 kg/m3
293.15 K, 558.53 kPa, x1 = 0.5401 | 19.2207 kg/m3
293.15 K, 637.77 kPa, x1 = 0.7822 | 27.0005 kg/m3
293.15 K, 758.84 kPa, x1 = 0.5401 | 27.3827 kg/m3
293.15 K, 856.96 kPa, x1 = 0.5401 | 31.7378 kg/m3
293.16 K, 103.22 kPa, x1 = 0.5401 | 3.2534 kg/m3
293.16 K, 213.45 kPa, x1 = 0.7822 | 8.1673 kg/m3
293.16 K, 216.96 kPa, x1 = 0.5401 | 6.9744 kg/m3
293.16 K, 311.55 kPa, x1 = 0.7822 | 12.1753 kg/m3
293.16 K, 328.59 kPa, x1 = 0.5401 | 10.787 kg/m3
293.16 K, 662.93 kPa, x1 = 0.5401 | 23.3629 kg/m3
293.17 K, 427.29 kPa, x1 = 0.6201 | 15.2346 kg/m3
293.17 K, 611.78 kPa, x1 = 0.6201 | 22.7331 kg/m3
293.18 K, 124.6 kPa, x1 = 0.6201 | 4.1917 kg/m3
293.18 K, 229.76 kPa, x1 = 0.6201 | 7.8762 kg/m3
293.18 K, 328.76 kPa, x1 = 0.6201 | 11.4874 kg/m3
293.18 K, 525.37 kPa, x1 = 0.6201 | 19.1338 kg/m3
293.19 K, 728.09 kPa, x1 = 0.6201 | 27.8461 kg/m3
